According to patent US20110190309A1, “PHARMACEUTICAL PRODUCT COMPRISING A […] RECEPTOR ANTAGONIST AND A Beta2-ADRENOCEPTOR AGONIST” (priority 2008, published 2011):
Structures can show the parent of a compound that is named as a salt.

Legend:
guinea pig trachea = assay: Bronchodilator activity in the guinea pig isolated tracheal ring preparation; details: 10 nM; methacholine 1 μM; 60 min; mean±s.e.mean
Description: Guinea pigs (300-500 g) were killed by cervical dislocation and the trachea was isolated. The trachea was cut into segments 2-3 cartilage rings in width and suspended in 10 ml organ baths in modified Krebs' solution (mM; NaCl, 90; NaHCO3, 45; KCl, 5; MgSO4.7H2O, 0.5; Na2HPO4.2H2O, 1; CaCl2, 2.25; glucose, 10; pH 7.4 gassed with 5% CO2, 95% O2 at 37° C.). The tracheal rings were attached to an isometric force transducer for the measurement of isometric tension. The tissues were washed and a force of 1 g was applied to each tissue. The rings were contracted with methacholine (1 μM). Once the contraction had reached a plateau, vehicle (0.01% DMSO in distilled H2O), indacaterol (10 nM), N-[2-(Diethylamino)ethyl]-N-(2-{[2-(4-hydroxy-2-oxo-2,3-dihydro-1,3-benzothiazol-7-yl)ethyl]amino}ethyl)-3-[2-(1-naphthyl)ethoxy]propanamide dihydrobromide (10 nM), N-Cyclohexyl-N^3-[2-(3-fluorophenyl)ethyl]-N-(2-{[2-(4-hydroxy-2-oxo-2,3-dihydro-1,3-benzothiazol-7-yl)ethyl]amino}ethyl)-(3-alaninamide di-D-mandelate salt (1 nM), (R)-3-(1-Phenyl-cycloheptanecarbonyloxy)-1-(pyridin-2-ylcarbamoylmethyl)-1-azonia-bicyclo[2.2.2]octane bromide (1 nM), a combination of (R)-3-(1-Phenyl-cycloheptanecarbonyloxy)-1-(pyridin-2-ylcarbamoylmethyl)-1-azonia-bicyclo[2.2.2]octane bromide (1 nM) and indacaterol (10 nM), a combination of N-[2-(Diethylamino)ethyl]-N-(2-{[2-(4-hydroxy-2-oxo-2,3-dihydro-1,3-benzothiazol-7-yl)ethyl]amino}ethyl)-3-[2-(1-naphthyl)ethoxy]propanamide dihydrobromide (10 nM) and (R)-3-(1-Phenyl-cycloheptanecarbonyloxy)-1-(pyridin-2-ylcarbamoylmethyl)-1-azonia-bicyclo[2.2.2]octane bromide (1 nM) and, or a combination of N-Cyclohexyl-N^3-[2-(3-fluorophenyl)ethyl]-N-(2-{[2-(4-hydroxy-2-oxo-2,3-dihydro-1,3-benzothiazol-7-yl)ethyl]amino}ethyl)-β-alaninamide di-D-mandelate salt (1 nM) and (R)-3-(1-Phenyl-cycloheptanecarbonyloxy)-1-(pyridin-2-ylcarbamoylmethyl)-1-azonia-bicyclo[2.2.2]octane bromide (1 nM) was added and the tissue left for 60 min. The tension was measured in each ring at 60 min following compound addition and was expressed as a % relaxation of the constriction to methacholine (1 μM) (mean±s.e.mean). Data were collected using the Chart 4 software (ADInstruments, Charlgrove, UK).

β2 = molecular target: T1, β2 (Homo sapiens, UniProt P07550); assay: Adrenergic β2 mediated cAMP production in H292 cells (AlphaScreen); type: cell-based; details: Intrinsic Activity as a fraction relative to the maximum activity of formoterol
T1 construct: endogenous in cells; host or cells: H292 cells
Description: H292 cells were grown in 225 cm2 flasks incubator at 37° C., 5% CO2 in RPMI medium containing, 10% (v/v) FBS (foetal bovine serum) and 2 mM L-glutamine.
Adherent H292 cells were removed from tissue culture flasks by treatment with Accutase™ cell detachment solution for 15 minutes. Flasks were incubated for 15 minutes in a humidified incubator at 37° C., 5% CO2. Detached cells were re-suspended in RPMI media (containing 10% (v/v) FBS and 2 mM L-glutamine) at 0.05×10^6 cells per mL. 5000 cells in 100 μL were added to each well of a tissue-culture-treated 96-well plate and the cells incubated overnight in a humidified incubator at 37° C., 5% CO2. The culture media was removed and cells were washed twice with 100 μL assay buffer and replaced with 50 μL assay buffer (HBSS solution containing 10 mM HEPES pH7.4 and 5 mM glucose). Cells were rested at room temperature for 20 minutes after which time 25 μL of rolipram (1.2 mM made up in assay buffer containing 2.4% (v/v) dimethylsulphoxide) was added. Cells were incubated with rolipram for 10 minutes after which time Compound A was added and the cells were incubated for 60 minutes at room temperature. The final rolipram concentration in the assay was 300 μM and final vehicle concentration was 1.6% (v/v) dimethylsulphoxide. The reaction was stopped by removing supernatants, washing once with 100 μL assay buffer and replacing with 50 μL lysis buffer. The cell monolayer was frozen at −80° C. for 30 minutes (or overnight).
The concentration of cAMP (cyclic adenosine monophosphate) in the cell lysate was determined using AlphaScreen™ methodology. […] The AlphaScreen™ signal was measured using an EnVision spectrophotometer (Perkin-Elmer Inc.) with the recommended manufacturer's settings. cAMP concentrations were determined by reference to a calibration curve determined in the same experiment using standard cAMP concentrations. […] Intrinsic Activity was expressed as a fraction relative to the maximum activity determined for formoterol in each experiment.

T1 sequence (P07550 whole entry): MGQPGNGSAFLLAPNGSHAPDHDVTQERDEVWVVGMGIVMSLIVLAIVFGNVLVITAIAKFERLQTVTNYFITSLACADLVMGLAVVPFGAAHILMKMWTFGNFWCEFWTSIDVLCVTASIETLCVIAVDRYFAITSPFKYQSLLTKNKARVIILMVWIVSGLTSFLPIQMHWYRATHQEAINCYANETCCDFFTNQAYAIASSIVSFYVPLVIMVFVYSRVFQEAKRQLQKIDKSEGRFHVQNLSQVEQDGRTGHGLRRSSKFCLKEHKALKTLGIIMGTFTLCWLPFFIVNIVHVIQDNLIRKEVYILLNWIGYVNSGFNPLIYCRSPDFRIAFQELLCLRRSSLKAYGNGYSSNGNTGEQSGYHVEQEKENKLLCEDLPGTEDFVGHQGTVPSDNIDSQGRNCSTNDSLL

SMILES	percentage relaxation of the constriction to methacholine (guinea pig trachea)	β2 Int Act (β2)
CCN(CC)CCN(CCNCCc1ccc(O)c2[nH]c(=O)sc12)C(=O)CCOCCc1cccc2ccccc12 [BA1, N-[2-(Diethylamino)ethyl]-N-(2-{[2-(4-hydroxy-2-oxo-2,3-dihydro-1,3-benzothiazol-7-yl)ethyl]amino}ethyl)-3-[2-(1-naphthyl)ethoxy]propanamide dihydrobromide]	18±11.2%	0.8
O=c1[nH]c2c(O)ccc([C@@H](O)CNCCSCCCNCCc3ccccc3Cl)c2s1 [BA3, 7-[(1R)-2-({2-[(3-{[2-(2-Chlorophenyl)ethyl]amino}propyl)thio]ethyl}amino)-1-hydroxyethyl]-4-hydroxy-1,3-benzothiazol-2(3H)-one dihydrobromide]	–	0.8
